Laboratory results taken from patent US11351168B1 (Celgene CAR LLC, priority 2008, dated 2022).
pIC50: −log10 of the molar value.

test system: BTK signaling in Ramos cells; experiment: BTK Ramos cellular assay (phosphorylation of BTK substrate PLCγ2); format: cell-based, human; settings: 1 hour compound, anti-IgM stimulation, read-out: BTK Inhibition (Ramos cellular)
Experimental: Compounds I-2, I-4, and I-7 were assayed in Ramos human Burkitt lymphoma cells. Ramos cells were grown in suspension in T225 flasks, spun down, resuspended in 50 ml serum-free media and incubated for 1 hour. Compound was added to Ramos cells in serum free media to a final concentration of 1, 0.1, 0.01, or 0.001 μM. Ramos cells were incubated with compound for 1 hour, washed again and resuspended in 100 ul serum-free media. Cells were then stimulated with 1 μg of goat F(ab′)2 Anti-Human IgM and incubated on ice for 10 minutes to activate B cell receptor signaling pathways. After 10 minutes, the cells were washed once with PBS and then lysed on ice with Invitrogen Cell Extraction buffer. 16 μg total protein from lysates were loaded on gel and blots were probed for phosphorylation of the BTK substrate PLCγ2.

| SMILES | pIC50 |
| --- | --- |
| C=CC(=O)N1CCOc2ccc(Nc3nc(Nc4ccc5cn[nH]c5c4)ncc3C(C)=O)cc21 [Compound I-153, 1-{6-[5-Acetyl-2-(1H-indazol-6-ylamino)-pyrimidin-4-ylamino]-2,3-dihydro-benzo[1,4]oxazin-4-yl}-propenone] | > 8.00 |

same assay, conditions: Homo sapiens, 1 hour compound, anti-IgM stimulation, read-out: BTK Inhibition (Ramos cellular)

| SMILES | pIC50 |
| --- | --- |
| C=CC(=O)Nc1ccc(Nc2nc(Nc3ccccc3)ncc2C)cc1 [Compound I-39, N-(4-(5-methyl-2-(phenylamino)pyrimidin-4-ylamino)phenyl) acrylamide] | 7.00 to 8.00 |
| C=CC(=O)Nc1cccc(Nc2nc(Nc3ccc(OC)c(OC)c3)ncc2F)c1 [Compound I-134, 4-(3acrylamidophenylamino)-5-fluoro-2-(3,4-dimethoxyphenylamino)-pyrimidine] | 7.00 to 8.00 |
| C=CC(=O)N1CCOc2ccc(Nc3nc(Nc4ccc(OC)nc4)ncc3C(C)=O)cc21 [Compound I-170, 1-{6-[5-Acetyl-2-(6-methoxy-pyridin-3-ylamino)-pyrimidin-4-ylamino]-2,3-dihydro-benzo[1,4]oxazin-4-yl}-propenone] | 7.00 to 8.00 |
| C=CC(=O)N1CCOc2ccc(Nc3nc(Nc4ccc(OC)nc4)ncc3F)cc21 [Compound I-194, 1-(6-(5-fluoro-2-(6-methoxypyridin-3-ylamino)pyrimidin-4-ylamino)-2H-benzo[b][1,4]oxazin-4(3H)-yl)prop-2-en-1-one] | > 8.00 |
| C=CC(=O)N1CCC[C@@H](Nc2nc(Nc3ccc(OC)nc3)ncc2F)C1 [Compound I-202, (R)-1-(3-(5-fluoro-2-(6-methoxypyridin-3-ylamino)pyrimidin-4-ylamino)piperidin-1-yl)prop-2-en-1-one] | 6.00 to 7.00 |
| C=CC(=O)Nc1cccc(Nc2nc(Nc3ccc(OCCOC)cc3)ncc2C(C)=O)c1 [Compound I-124, N-(3-{5-Acetyl-2-[4-(2-methoxy-ethoxy)-phenylamino]-pyrimidin-4-ylamino}-phenyl)-acrylamide] | > 8.00 |
| C=CC(=O)Nc1cccc(Nc2nc(Nc3ccc(OC)nc3)ncc2C(C)=O)c1 [Compound I-189, N-{3-[5-Acetyl-2-(6-methoxy-pyridin-3-ylamino)-pyrimidin-4-ylamino]-phenyl}-acrylamide] | 7.00 to 8.00 |
| C=CC(=O)N(C)Cc1ccc(Nc2nc(Nc3ccc(OC)nc3)ncc2F)cc1 [Compound I-114, N-(4-(5-fluoro-2-(6-methoxypyridin-3-ylamino)pyrimidin-4-ylamino)benzyl)-N-methylacrylamide] | 7.00 to 8.00 |
| C=CC(=O)N1CCOc2ccc(Nc3nc(Nc4ccc(N(C)C(=O)C(F)(F)F)nc4)ncc3C(C)=O)cc21 [Compound I-142, N-(5-(5-acetyl-4-(4-acryloyl-3,4-dihydro-2H-benzo[b][1,4]oxazin-6-ylamino)pyrimidin-2-ylamino)pyridin-2-yl)-2,2,2-trifluoro-N-methylacetamide] | 7.00 to 8.00 |
| C=CC(=O)N1CCC[C@@H](Nc2nc(Nc3cccc(OCCN4CCOCC4)c3)ncc2F)C1 [Compound I-135, (R)-1-(3-(5-fluoro-2-(3-(2-morpholinoethoxy)phenylamino)pyrimidin-4-ylamino)piperidin-1-yl)prop-2-en-1-one] | 7.00 to 8.00 |
| C=CC(=O)N1CCCC(Nc2nc(Nc3ccccc3)ncc2C)C1 (stereo not shown) [Compound I-27] | 7.00 to 8.00 |
| C=CC(=O)Nc1cccc(Nc2nc(Nc3ccc4c(c3)NCCO4)ncc2F)c1 [Compound I-174] | > 8.00 |
| C=CC(=O)Nc1cccc(Nc2nc(Nc3ccccc3)ncc2C#N)c1 [Compound I-157, N-(3-(5-cyano-2-(phenylamino)pyrimidin-4-ylamino)phenyl)acrylamide] | > 8.00 |
| C=CC(=O)Nc1cccc(Oc2nc(Nc3ccc(OC)nc3)ncc2C(C)=O)c1 [Compound I-188, N-{3-[5-Acetyl-2-(6-methoxy-pyridin-3-ylamino)-pyrimidin-4-yloxy]-phenyl}-acrylamide] | > 8.00 |
| C=CC(=O)N1CCOc2ccc(Nc3nc(Nc4ccc(N5CCOCC5)nc4)ncc3C(C)=O)cc21 [Compound I-168, 1-{6-[5-Acetyl-2-(6-morpholin-4-yl-pyridin-3-ylamino)-pyrimidin-4-ylamino]-2,3-dihydro-benzo[1,4]oxazin-4-yl}-propenone] | 7.00 to 8.00 |
| C=CC(=O)Nc1cccc(Nc2nc(Nc3ccc(OCc4ccccn4)c(Cl)c3)ncc2F)c1 [Compound I-86, N-(3-(2-(3-chloro-4-(pyridin-2-ylmethoxy)phenylamino)-5-fluoropyrimidin-4-ylamino)phenyl)acrylamide] | > 8.00 |
| C=CC(=O)N1CCc2cc(Nc3nc(Nc4cccc(S(N)(=O)=O)c4)ncc3C)ccc2C1 [Compound I-40, 3-(4-(2-acryloyl-1,2,3,4-tetrahydroisoquinolin-6-ylamino)-5-methylpyrimidin-2-ylamino)benzenesulfonamide] | 7.00 to 8.00 |
| C=CC(=O)Nc1cccc(Nc2nc(Nc3cccc(OCCCN4CCOCC4)c3)ncc2F)c1 [Compound I-208, N-(3-(5-fluoro-2-(3-(3-morpholinopropoxy)phenylamino)pyrimidin-4-ylamino)phenyl)acrylamide] | 7.00 to 8.00 |
| C=CC(=O)Nc1cc(Nc2nc(Nc3ccc(OCCOC)cc3)ncc2F)ccc1Cl [Compound I-108, N-(2-chloro-5-(5-fluoro-2-(4-(2-methoxyethoxy)phenylamino)pyrimidin-4-ylamino)phenyl)acrylamide] | 7.00 to 8.00 |
| C=CC(=O)N(C)Cc1cccc(Nc2nc(Nc3ccccc3)ncc2C)c1 [Compound I-220, N-methyl-N-(3-(5-methyl-2-(phenylamino)pyrimidin-4-ylamino)benzyl)acrylamide] | 7.00 to 8.00 |
| C=CC(=O)Nc1cccc(Nc2nc(Nc3ccc(OCCCS(C)(=O)=O)nc3)ncc2F)c1 [Compound I-80, N-(3-(5-fluoro-2-(6-(3-(methylsulfonyl)propoxy)pyridin-3-ylamino)pyrimidin-4-ylamino)phenyl)acrylamide] | > 8.00 |
| C=CC(=O)N1CCC(Nc2nc(Nc3cccc(OC)c3)ncc2F)C1 (stereo not shown) [Compound I-201, 1-(3-(5-fluoro-2-(3-methoxyphenylamino)pyrimidin-4-ylamino)pyrrolidin-1-yl)prop-2-en-1-one] | 6.00 to 7.00 |
| C=CC(=O)N1CCC[C@@H](Oc2nc(Nc3cccc(OC)c3)ncc2F)C1 [Compound I-190, (R)-1-(3-(5-fluoro-2-(3-methoxyphenylamino)pyrimidin-4-yloxy)piperidin-1-yl)prop-2-en-1-one] | 7.00 to 8.00 |

The next lines start with the values.

| pIC50 | SMILES |
| --- | --- |
| > 8.00 | C=CC(=O)Nc1cccc(Oc2nc(Nc3ccc(OC)nc3)ncc2C)c1 [Compound I-186, N-(3-(2-(6-methoxypyridin-3-ylamino)-5-methylpyrimidin-4-yloxy)phenyl)acrylamide] |
| > 8.00 | C=CC(=O)Nc1cccc(Nc2nc(Nc3ccc(N(C)CCOC)nc3)ncc2F)c1 [Compound I-77, N-(3-(5-fluoro-2-(6-((2-methoxyethyl)(methyl)amino)pyridin-3-ylamino)pyrimidin-4-ylamino)phenyl)acrylamide] |
| > 8.00 | C=CC(=O)Nc1cccc(Nc2nc(Nc3ccc4c(cnn4C(=O)OC(C)(C)C)c3)ncc2F)c1 [Compound I-151] |
| 6.00 to 7.00 | C=C(C)C(=O)c1ccc(Nc2nc(Nc3ccccc3)ncc2F)cc1 [Compound I-185, 1-(4-(5-fluoro-2-(phenylamino)pyrimidin-4-ylamino)phenyl)-2-methylprop-2-en-1-one] |
| > 8.00 | C=CC(=O)Nc1cccc(Nc2nc(Nc3ccc(OCC(C)(C)O)nc3)ncc2F)c1 [Compound I-313, N-(3-(5-fluoro-2-(6-(2-hydroxy-2-methylpropoxy)pyridin-3-ylamino)pyrimidin-4-ylamino)phenyl)acrylamide] |
| 6.00 to 7.00 | C=CC(=O)Nc1cccc(Oc2nc(Nc3ccc(OC)nc3)ncc2C(=O)Nc2ccccc2)c1 [Compound I-159, 4-(3-acrylamidophenoxy)-2-(6-methoxypyridin-3-ylamino)-pyrimidine-5-carboxylic acid phenylamide] |
| > 8.00 | C=CC(=O)Nc1cccc(Nc2nc(Nc3ccc(Cl)c(OCCOC)c3)ncc2F)c1 [Compound I-321, N-(3-(2-(4-chloro-3-(2-methoxyethoxy)phenylamino)-5-fluoropyrimidin-4-ylamino)phenyl)acrylamide] |
| 7.00 to 8.00 | C=CC(=O)Nc1cccc(Nc2nc(Nc3cc(OC)c(OC)c(OC)c3)ncc2F)c1 [Compound I-133, 4-(3-acrylamidophenylamino)-5-fluoro-2-(3,4,5-trimethoxyphenylamino)-pyrimidine] |
| > 8.00 | C=CC(=O)Nc1cccc(Nc2nc(Nc3ccc4c(c3)N(C(=O)C(F)(F)F)CCO4)ncc2F)c1 [Compound I-143, N-(3-(2-(4-trifluoroacetyl-2,3-dihydrobenzo[1,4]oxazin-6-yl)amino-5-fluoropyrimidin-4-ylamino)phenyl)acrylamide] |
| 7.00 to 8.00 | COc1ccc(Nc2ncc(F)c(Nc3cccc(NC(=O)/C=C/CN(C)C)c3)n2)cn1 [Compound I-125, (E)-4-(dimethylamino)-N-(3-(5-fluoro-2-(6-methoxypyridin-3-ylamino)pyrimidin-4-ylamino)phenyl)but-2-enamide] |
| > 8.00 | C=CC(=O)Nc1cccc(Oc2nc(Nc3ccc(OCCOC)cc3)ncc2C2CC2)c1 [Compound I-131, N-(3-(5-cyclopropyl-2-(4-(2-methoxyethoxy)phenylamino)pyrimidin-4-yloxy)phenyl)acrylamide] |
| > 8.00 | C=CC(=O)Nc1cccc(Nc2nc(Nc3ccc(OC(C)C)nc3)ncc2F)c1 [Compound I-172, N-(3-(5-fluoro-2-(6-isopropoxypyridin-3-ylamino)pyrimidin-4-ylamino)phenyl)acrylamide] |
| 7.00 to 8.00 | C=CC(=O)N1CCc2ccc(Nc3nc(Nc4ccc(OC)nc4)ncc3F)cc21 [Compound I-166, 1-(6-(5-fluoro-2-(6-methoxypyridin-3-ylamino)pyrimidin-4-ylamino)indolin-1-yl)prop-2-en-1-one] |
